Source: patent US8039474B2, “2,3,4,9-tetrahydro-1H-carbazole derivatives as CRTH2 receptor antagonists” (Actelion Pharmaceutical Ltd., priority 2004, dated 2011)
pIC50: −log10 of the molar value.

The compounds below were run against T1, hCRTH2 receptor (Homo sapiens, UniProt Q9Y5Y4) (assay: Intracellular calcium mobilization assay (FLIPR), PGD2 challenge). Details: HEK-293 cells stably expressing hCRTH2; 10 nM prostaglandin D2 as agonist.
T1 construct: expressed in transfected cells
T1 sequence (Q9Y5Y4 1-395): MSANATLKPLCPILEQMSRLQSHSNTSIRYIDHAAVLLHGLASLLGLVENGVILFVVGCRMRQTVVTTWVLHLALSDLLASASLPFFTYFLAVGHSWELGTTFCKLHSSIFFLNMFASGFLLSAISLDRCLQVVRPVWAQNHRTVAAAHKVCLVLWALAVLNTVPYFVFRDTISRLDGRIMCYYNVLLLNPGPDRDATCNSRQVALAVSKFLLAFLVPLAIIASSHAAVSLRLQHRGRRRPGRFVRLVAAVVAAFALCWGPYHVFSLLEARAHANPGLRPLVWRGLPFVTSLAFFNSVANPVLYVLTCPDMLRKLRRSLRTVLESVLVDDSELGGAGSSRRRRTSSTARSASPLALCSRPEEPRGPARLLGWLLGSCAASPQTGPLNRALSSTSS
Format: cell-based
Experimental: A functional assay with cells expressing the human CRTH2 receptor may be used to detect changes in the levels of intracellular calcium concentration following compound treatment. After addition of the compound the cells are challenged with PGD2. In a Fluorescent Imaging Plate Reader (FLIPR™, Molecular Devices, Sunnyvale, Calif.) fluorescence emission is recorded during both additions, emission peak values above base level after PGD2 addition were exported, normalized to low controls (no PGD2) and high controls (no active compound). The relative values of the remaining activity were used to determine IC50 values by curve fitting the data to a single site to a four-parameter logistic sigmoid dose response curve of the equation (A+((B−A)/(1+((C/x)^D)))).
Cells (HEK-293), stably expressing the hCRTH2 receptor under the control of the cytomegalovirus promotor from a single insertion of the expression vector pcDNA5 (Invitrogen), are grown to confluency in DMEM (low glucose, Gibco) medium supplemented with 10% fetal calf serum (both Bioconcept, Switzerland) under standard mammalian cell culture conditions (37° C. in a humidified atmosphere of 5% CO2). Cells are detached from culture dishes using a dissociation buffer (0.02% EDTA in PBS, Gibco) for 1 min, and collected by centrifugation at 200 g at rt for 5 min in assay buffer (equal parts of Hank's BSS (HBSS, Bioconcept) and DMEM (low glucose, without phenol red, Gibco)). After incubation for 45 min (37° C. and 5% CO2) in the presence of 1 μM Fluo-4 and 0.04% Pluronic F-127 (both Molecular Probes), 20 mM HEPES (Gibco) in assay buffer, the cells are washed with and resuspended in assay buffer, then seeded onto 384-well FLIPR assay plates (Greiner) at 50,000 cells in 66 μl per well, and sedimented by centrifugation.
Stock solutions of test compounds are made up at a concentration of 10 mM in DMSO, and serially diluted in assay buffer to concentrations required for inhibition dose response curves. Prostaglandin D2 (Biomol, Plymouth Meeting, Pa.) is used as an agonist.
A FLIPR384 instrument (Molecular Devices) is operated according to the manufacturer's standard instructions, adding 4 μl of test compound dissolved at 10 mM in DMSO and diluted prior to the experiment in assay buffer to obtain the desired final concentration. 10 μl of 80 nM prostaglandin D2 (Biomol, Plymouth Meeting, Pa.) in assay buffer, supplemented with 0.8% bovine serum albumin (fatty acid content<0.02%, Sigma), is then added to obtain a final concentration of 10 nM and 0.1%, respectively. Changes in fluorescence are monitored before and after the addition of test compounds at λex=488 nm and λem=540 nm. Emission peak values above base level after prostaglandin D2 addition are exported after base line subtraction. Values are normalized to high-level control (no test compound added) after subtraction of base line value (no prostaglandin D2 added). The program XL1fit 3.0 (IDBS) is used to fit the data to a single site dose response curve of the equation (A+((B−A)/(1+((C/x)^D)))) and to calculate the IC50 values.

pIC50	SMILES
7.89	CN(C(=O)C1(C)CCc2c(c3ccccc3n2CC(=O)O)C1)c1ccccc1 (racemic) [Example B-01, (±)-[3-Methyl-3-(methyl-phenyl-carbamoyl)-1,2,3,4-tetrahydro-carbazol-9-yl]-acetic acid]
7.17	CCC1(C(=O)N2CCc3ccccc32)CCc2c(c3ccccc3n2CC(=O)O)C1 (racemic) [Example B-22, (±)-[3-(2,3-Dihydro-indole-1-carbonyl)-3-ethyl-1,2,3,4-tetrahydro-carbazol-9-yl]-acetic acid]
7.44	CC1(C(=O)N(CCC#N)Cc2ccccc2)CCc2c(c3ccccc3n2CC(=O)O)C1 (racemic) [Example B-56, (±)-{3-[Benzyl-(2-cyano-ethyl)-carbamoyl]-3-methyl-1,2,3,4-tetrahydro-carbazol-9-yl}-acetic acid]

Second part, the compound before the results:

SMILES	pIC50
CN(C(=O)C1CCc2c(c3cc([N+](=O)[O-])ccc3n2CC(=O)O)C1)c1ccccc1 (racemic) [(±)-[3-(Methyl-phenyl-carbamoyl)-6-nitro-1,2,3,4-tetrahydro-carbazol-9-yl]-acetic acid]	7.96
CN(C(=O)C1CCc2c(c3ccccc3n2CC(=O)O)C1)c1ccccc1C(F)(F)F (racemic) [Example A-37, (±)-{3-[Methyl-(2-trifluoromethyl-phenyl)-carbamoyl]-1,2,3,4-tetrahydro-carbazol-9-yl}-acetic acid]	7.35
CN(C(=O)C1CCc2c(c3ccccc3n2CC(=O)O)C1)C(c1ccccc1)c1ccccc1 (racemic) [Example A-42, (±)-[3-(Benzhydryl-methyl-carbamoyl)-1,2,3,4-tetrahydro-carbazol-9-yl]-acetic acid]	7.77
CN(C(=O)C1(C)CCc2c(c3ccccc3n2CC(=O)O)C1)c1cccc(Cl)c1 (racemic) [Example B-10, (±)-{3-[(3-Chloro-phenyl)-methyl-carbamoyl]-3-methyl-1,2,3,4-tetrahydro-carbazol-9-yl}-acetic acid]	7.70
O=C(O)Cn1c2c(c3cc(F)ccc31)CC(C(=O)N1CCc3ccccc31)CC2 (single isomer, unassigned; (+)) [(+)-[3-(2,3-Dihydro-indole-1-carbonyl)-6-fluoro-1,2,3,4-tetrahydro-carbazol-9-yl]-acetic acid]	7.55
O=C(O)Cn1c2c(c3cc(F)ccc31)CC(C(=O)N1CCCCCCC1)CC2 (single isomer, unassigned; (+)) [(+)-[3-(Azocane-1-carbonyl)-6-fluoro-1,2,3,4-tetrahydro-carbazol-9-yl]-acetic acid]	7.34
O=C(O)Cn1c2c(c3cc(F)ccc31)CC(C(=O)N1CCN(c3ccc(F)cc3)CC1)CC2 (single isomer, unassigned; (-)) [(−)-{6-Fluoro-3-[4-(4-fluoro-phenyl)-piperazine-1-carbonyl]-1,2,3,4-tetrahydro-carbazol-9-yl}-acetic acid]	6.22

What follows are compounds tested against T1, hCRTH2 receptor (assay: CRTH2 membranes radioligand binding assay ({3H}-PGD2)). Details: {3H}-PGD2 2.5 nM; membranes of HEK 293 cells expressing recombinant hCRTH2; read-out: hCRTH2 BDG IC50.
Experimental: Cells are detached from culture plates in 5 ml buffer A (5 mM Tris, 1 mM MgCl2×6 H2O, 0.1 mM PMSF, 0.1 mM phenanthroline) per plate using a police rubber and transferred into centrifugation tubes and frozen at −80° C. After thawing, the cells are centrifuged at 500 g for 5 min and then resuspended in buffer A. Cells are then fragmented by homogenization with a Polytron homogenizer for 30 s. The membrane fragments are centrifuged at 3000 g for 40 min and resuspended in membranes in buffer B (50 mM Tris, 25 mM MgCl2, 250 mM saccharose, pH 7.4) and aliquots are stored frozen.
Binding assay is performed in a total volume of 250 μl. […] For unspecific binding, PGD2 is added to the reaction mixture at 1 μM final concentration. This binding assay mix is incubated at rt for 90 min and then filtered through a GF/C filter plate. The filter is washed three times with ice cold binding buffer. Then, 40 μl per well Microscint-40 (Packard) are added and the bound radioactivity is quantified by means of Topcount (Packard).

pIC50	SMILES
8.52	CN(C(=O)C1(C)CCc2c(c3ccccc3n2CC(=O)O)C1)c1ccccc1 (racemic) [Example B-01, (±)-[3-Methyl-3-(methyl-phenyl-carbamoyl)-1,2,3,4-tetrahydro-carbazol-9-yl]-acetic acid]
8.52	CC1(C(=O)N(Cc2ccccc2)c2ccccc2)CCc2c(c3ccccc3n2CC(=O)O)C1 (racemic) [Example B-04, (±)-[3-(Benzyl-phenyl-carbamoyl)-3-methyl-1,2,3,4-tetrahydro-carbazol-9-yl]-acetic acid]
8.70	CC1(C(=O)N(Cc2ccsc2)c2ccccc2)CCc2c(c3ccccc3n2CC(=O)O)C1 (racemic) [Example B-07, (±)-[3-Methyl-3-(phenyl-thiophen-3-ylmethyl-carbamoyl)-1,2,3,4-tetrahydro-carbazol-9-yl]-acetic acid]
7.66	CCCC1(C(=O)Nc2cccc(F)c2)CCc2c(c3ccccc3n2CC(=O)O)C1 (racemic) [Example B-32, (±)-[3-(3-Fluoro-phenylcarbamoyl)-3-propyl-1,2,3,4-tetrahydro-carbazol-9-yl]-acetic acid]
7.72	CC1(C(=O)NCc2cc(F)cc(F)c2)CCc2c(c3ccccc3n2CC(=O)O)C1 (racemic) [Example B-68, (±)-[3-(3,5-Difluoro-benzylcarbamoyl)-3-methyl-1,2,3,4-tetrahydro-carbazol-9-yl]-acetic acid]

Second part, the compound before the results:

SMILES	pIC50
O=C(O)Cn1c2c(c3ccccc31)CC(C(=O)N1CCc3ccccc31)CC2 (racemic) [Example A-39, (±)-[3-(2,3-Dihydro-indole-1-carbonyl)-1,2,3,4-tetrahydro-carbazol-9-yl]-acetic acid]	8.70
CN(C(=O)C1(C)CCc2c(c3ccccc3n2CC(=O)O)C1)c1cccc(Cl)c1 (racemic) [Example B-10, (±)-{3-[(3-Chloro-phenyl)-methyl-carbamoyl]-3-methyl-1,2,3,4-tetrahydro-carbazol-9-yl}-acetic acid]	9.00
CC(C)N(Cc1ccccc1)C(=O)C1CCc2c(c3cc(F)ccc3n2CC(=O)O)C1 (single isomer, unassigned; (+)) [(+)-[3-(Benzyl-isopropyl-carbamoyl)-6-fluoro-1,2,3,4-tetrahydro-carbazol-9-yl]-acetic acid]	8.52
CC(C)N(Cc1ccccc1)C(=O)C1CCc2c(c3cc(F)ccc3n2CC(=O)O)C1 (single isomer, unassigned; (-)) [(−)-[3-(Benzyl-isopropyl-carbamoyl)-6-fluoro-1,2,3,4-tetrahydro-carbazol-9-yl]-acetic acid]	7.17
